The source of these data is patent publication US10294229B2, “Heteroaryl substituted aminopyridine compounds” (BRISTOL-MYERS SQUIBB COMPANY, priority 2015, dated 2019).

For this assay, the target named is IRAK4 (Homo sapiens (Human), UniProt Q9NWZ3). Kind of assay: IRAK4 Inhibition Assay. Format: biochemical. The note with it: ATP 500 μM; IRAK4 0.6 nM. An outline of the steps: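 Enzyme 0.6 nM, ATP 500 μM, FL-peptide 1.5 μM, DMSO 1.6%; HEPES pH 7.2/MgCl2/Brij 35/DTT buffer. RT, 60 min, EDTA stop. Mobility-shift product/substrate ratio; % inhib vs no-enzyme and vehicle controls.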
Sequence of IRAK4 (Q9NWZ3 whole entry, species assumed): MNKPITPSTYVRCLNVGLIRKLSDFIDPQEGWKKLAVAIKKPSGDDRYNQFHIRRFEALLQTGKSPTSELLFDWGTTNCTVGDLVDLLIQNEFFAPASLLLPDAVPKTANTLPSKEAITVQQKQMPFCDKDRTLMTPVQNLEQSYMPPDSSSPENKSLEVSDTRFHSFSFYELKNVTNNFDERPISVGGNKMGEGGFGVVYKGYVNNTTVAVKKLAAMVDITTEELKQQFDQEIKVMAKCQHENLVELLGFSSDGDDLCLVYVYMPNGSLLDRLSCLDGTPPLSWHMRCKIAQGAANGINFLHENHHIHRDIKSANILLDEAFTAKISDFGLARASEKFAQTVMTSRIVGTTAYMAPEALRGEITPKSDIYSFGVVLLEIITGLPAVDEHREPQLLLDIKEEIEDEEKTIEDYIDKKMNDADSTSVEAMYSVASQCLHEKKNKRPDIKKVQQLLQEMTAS
As to `CCCc1cn(-c2cnc(-n3ncc4cncnc43)cc2Nc2cnn(CC(F)F)c2)nn1` [Example 271, N-(1-(2,2-difluoroethyl)-1H-pyrazol-4-yl)-5-(4-propyl-1H-1,2,3-triazol-1-yl)-2-(1H-pyrazolo[3,4-d]pyrimidin-1-yl)pyridin-4-amine], the IC50 (usually the concentration that inhibits the measured activity by half) amounted to 108 nM.
As to `CCCc1cn(-c2cnc(-n3ncc4cc(C#N)cnc43)cc2N[C@H](C)CO)nn1` [Example 272, (R)-1-(4-((1-hydroxypropan-2-yl)amino)-5-(4-propyl-1H-1,2,3-triazol-1-yl)pyridin-2-yl)-1H-pyrazolo[3,4-b]pyridine-5-carbonitrile], the IC50 amounted to 529 nM.
The figure for `CCCc1cn(-c2cnc(-n3ncc4cc(C#N)cnc43)cc2N[C@@H](C)CO)nn1` [Example 273, (S)-1-(4-((1-hydroxypropan-2-yl)amino)-5-(4-propyl-1H-1,2,3-triazol-1-yl)pyridin-2-yl)-1H-pyrazolo[3,4-b]pyridine-5-carbonitrile] is 78 nM.
The figure for `CCCc1cn(-c2cnc(-n3ncc4cc(C#N)cnc43)cc2NC2COC2)nn1` [Example 276, 1-(4-(oxetan-3-ylamino)-5-(4-propyl-1H-1,2,3-triazol-1-yl)pyridin-2-yl)-1H-pyrazolo[3,4-b]pyridine-5-carbonitrile] is 17 nM.
Under `CCCc1cn(-c2cnc(-n3cnc4cc(C#N)cnc43)cc2NC2COC2)nn1` [Example 277, 3-(4-(oxetan-3-ylamino)-5-(4-propyl-1H-1,2,3-triazol-1-yl)pyridin-2-yl)-3H-imidazo[4,5-b]pyridine-6-carbonitrile] stands 87 nM; under `CCCc1cn(-c2cnc(-n3cnc4cnc(N)nc43)cc2NC(C)C)nn1` [Example 279, 9-(4-(isopropylamino)-5-(4-propyl-1H-1,2,3-triazol-1-yl)pyridin-2-yl)-9H-purin-2-amine], 17 nM; under `CCCc1cn(-c2cnc(-n3cnc4cc(C#N)cnc43)cc2N[C@H](C)CO)nn1` [Example 286, (R)-3-(4-((1-hydroxypropan-2-yl)amino)-5-(4-propyl-1H-1,2,3-triazol-1-yl)pyridin-2-yl)-3H-imidazo[4,5-b]pyridine-6-carbonitrile], 157 nM.
Regarding `CCCc1cn(-c2cnc(-n3ncc4cc(C#N)cnc43)cc2NCC(C)(C)O)nn1` [Example 287, 1-(4-((2-hydroxy-2-methylpropyl)amino)-5-(4-propyl-1H-1,2,3-triazol-1-yl)pyridin-2-yl)-1H-pyrazolo[3,4-b]pyridine-5-carbonitrile], the IC50 turned out to be 34 nM.
The figure for `CC(C)Nc1cc(-n2ncc3cc(C#N)cnc32)ncc1-n1cc(CO)nn1` [Example 295, 1-(5-(4-(hydroxymethyl)-1H-1,2,3-triazol-1-yl)-4-(isopropylamino)pyridin-2-yl)-1H-pyrazolo[3,4-b]pyridine-5-carbonitrile] is 48 nM; for `CC(C)Nc1cc(-n2ncc3cc(C#N)cnc32)ncc1-n1cc(-c2ccccc2)nn1` [Example 297, 1-(4-(isopropylamino)-5-(4-phenyl-1H-1,2,3-triazol-1-yl)pyridin-2-yl)-1H-pyrazolo[3,4-b]pyridine-5-carbonitrile] it is 28 nM.
The figure for `CC(C)Nc1cc(-n2ncc3cc(C#N)cnc32)ncc1-n1cc(C(C)(C)O)nn1` [Example 298, 1-(5-(4-(2-hydroxypropan-2-yl)-1H-1,2,3-triazol-1-yl)-4-(isopropylamino)pyridin-2-yl)-1H-pyrazolo[3,4-b]pyridine-5-carbonitrile] is 194 nM; for `CC(C)Nc1cc(-n2ncc3cc(C#N)cnc32)ncc1-n1cc(-c2cccnc2)nn1` [Example 299, 1-(4-(isopropylamino)-5-(4-(pyridin-3-yl)-1H-1,2,3-triazol-1-yl)pyridin-2-yl)-1H-pyrazolo[3,4-b]pyridine-5-carbonitrile] it is 44 nM.
Under `CC(C)Nc1cc(-n2ncc3cc(C#N)cnc32)ncc1-n1cc(C2CC2)nn1` [Example 300, 1-(5-(4-cyclopropyl-1H-1,2,3-triazol-1-yl)-4-(isopropylamino)pyridin-2-yl)-1H-pyrazolo[3,4-b]pyridine-5-carbonitrile] stands 22 nM; under `CC(C)Nc1cc(-n2ncc3cc(C#N)cnc32)ncc1-n1cc(CN2CCOCC2)nn1` [Example 301, 1-(4-(isopropylamino)-5-(4-(morpholinomethyl)-1H-1,2,3-triazol-1-yl)pyridin-2-yl)-1H-pyrazolo[3,4-b]pyridine-5-carbonitrile], 22 nM.
As for `CC(C)Nc1cc(-n2ncc3cc(C#N)cnc32)ncc1-n1cc(CCO)nn1` [Example 302, 1-(5-(4-(2-hydroxyethyl)-1H-1,2,3-triazol-1-yl)-4-(isopropylamino)pyridin-2-yl)-1H-pyrazolo[3,4-b]pyridine-5-carbonitrile], the IC50 amounted to 29 nM.
Turning to `CC(C)Nc1cc(-n2ncc3cc(C#N)cnc32)ncc1-n1cc(-c2ccccn2)nn1` [Example 304, 1-(4-(isopropylamino)-5-(4-(pyridin-2-yl)-1H-1,2,3-triazol-1-yl)pyridin-2-yl)-1H-pyrazolo[3,4-b]pyridine-5-carbonitrile], the 50% inhibitory concentration (IC50) was determined as 115 nM.
Under `CC(C)Nc1cc(-n2ncc3cc(C#N)cnc32)ncc1-n1cc(CC(C)(C)O)nn1` [Example 306, 1-(5-(4-(2-hydroxy-2-methylpropyl)-1H-1,2,3-triazol-1-yl)-4-(isopropylamino)pyridin-2-yl)-1H-pyrazolo[3,4-b]pyridine-5-carbonitrile] stands 56 nM; under `CC(C)Nc1cc(-n2ncc3cc(C#N)cnc32)ncc1-n1cc(CN(C)C)nn1` [Example 308, 1-(5-(4-((dimethylamino)methyl)-1H-1,2,3-triazol-1-yl)-4-(isopropylamino)pyridin-2-yl)-1H-pyrazolo[3,4-b]pyridine-5-carbonitrile], 80 nM; under `CC(C)Nc1cc(-n2ncc3cc(C#N)cnc32)ncc1-n1cc(C(N)=O)nn1` [Example 309, 1-(6-(5-cyano-1H-pyrazolo[3,4-b]pyridin-1-yl)-4-(isopropylamino)pyridin-3-yl)-1H-1,2,3-triazole-4-carboxamide], 304 nM.
The figure for `CC(C)Nc1cc(-n2ncc3cc(C#N)cnc32)ncc1-n1cc(CN)nn1` [Example 310, 1-(5-(4-(aminomethyl)-1H-1,2,3-triazol-1-yl)-4-(isopropylamino)pyridin-2-yl)-1H-pyrazolo[3,4-b]pyridine-5-carbonitrile] is 108 nM; for `CC(C)Nc1cc(-n2ncc3cc(C#N)cnc32)ncc1-n1cc(C(C)(C)N)nn1` [Example 312, 1-(5-(4-(2-aminopropan-2-yl)-1H-1,2,3-triazol-1-yl)-4-(isopropylamino)pyridin-2-yl)-1H-pyrazolo[3,4-b]pyridine-5-carbonitrile] it is 213 nM; for `CC(C)Nc1cc(-n2ncc3cc(C#N)cnc32)ncc1-n1cc(CNC(N)=O)nn1` [Example 313, 1-((1-(6-(5-cyano-1H-pyrazolo[3,4-b]pyridin-1-yl)-4-(isopropylamino)pyridin-3-yl)-1H-1,2,3-triazol-4-yl)methyl)urea] it is 115 nM.
The figure for `CNCc1cn(-c2cnc(-n3ncc4cc(C#N)cnc43)cc2NC(C)C)nn1` [Example 314, 1-(4-(isopropylamino)-5-(4-((methylamino)methyl)-1H-1,2,3-triazol-1-yl)pyridin-2-yl)-1H-pyrazolo[3,4-b]pyridine-5-carbonitrile] is 93 nM; for `COc1cc(OC)cc(-c2cn(-c3cnc(-n4ncc5cc(C#N)cnc54)cc3NC(C)C)nn2)c1` [Example 316, 1-(5-(4-(3,5-dimethoxyphenyl)-1H-1,2,3-triazol-1-yl)-4-(isopropylamino)pyridin-2-yl)-1H-pyrazolo[3,4-b]pyridine-5-carbonitrile] it is 244 nM.
As to `CC(C)Nc1cc(-n2ncc3cc(C#N)cnc32)ncc1-n1cc(-c2cncn2C)nn1` [Example 317, 1-(4-(isopropylamino)-5-(4-(1-methyl-1H-imidazol-5-yl)-1H-1,2,3-triazol-1-yl)pyridin-2-yl)-1H-pyrazolo[3,4-b]pyridine-5-carbonitrile], the IC50 was 60 nM.
The figure for `CCC(C)(O)c1cn(-c2cnc(-n3ncc4cc(C#N)cnc43)cc2NC(C)C)nn1` (stereo not drawn) [Example 322, 1-(5-(4-(2-hydroxybutan-2-yl)-1H-1,2,3-triazol-1-yl)-4-(isopropylamino)pyridin-2-yl)-1H-pyrazolo[3,4-b]pyridine-5-carbonitrile] is 39 nM; for `CC(C)Nc1cc(-n2ncc3cc(C#N)cnc32)ncc1-n1cc(-c2ccncc2)nn1` [Example 326, 1-(4-(isopropylamino)-5-(4-(pyridin-4-yl)-1H-1,2,3-triazol-1-yl)pyridin-2-yl)-1H-pyrazolo [3,4-b]pyridine-5-carbonitrile] it is 28 nM.
Take `CC(C)Nc1cc(-n2ncc3cc(C#N)cnc32)ncc1-n1cc(CCN)nn1` [Example 328, 1-(5-(4-(2-aminoethyl)-1H-1,2,3-triazol-1-yl)-4-(isopropylamino)pyridin-2-yl)-1H-pyrazolo[3,4-b]pyridine-5-carbonitrile]: the 50% inhibitory concentration (IC50) stood at 26 nM.
The figure for `CC(C)Nc1cc(-n2ncc3cc(C#N)cnc32)ncc1-n1cc(CF)nn1` [Example 329, 1-(5-(4-(fluoromethyl)-1H-1,2,3-triazol-1-yl)-4-(isopropylamino)pyridin-2-yl)-1H-pyrazolo[3,4-b]pyridine-5-carbonitrile] is 34 nM.
The figure for `CCN[C@H]1CC[C@H](c2cn(-c3cnc(-n4ncc5cc(C#N)cnc54)cc3NC(C)C)nn2)CC1` [Example 356, 1-(5-(4-((1s,4s)-4-(ethylamino)cyclohexyl)-1H-1,2,3-triazol-1-yl)-4-(isopropylamino)pyridin-2-yl)-1H-pyrazolo[3,4-b]pyridine-5-carbonitrile] is 3 nM.
